{"source": "patent US5849263A", "about": "“Pharmaceutical compositions containing alkylaryl polyether alcohol polymer” (priority 1996, dated 1998)", "origin": "cited, not measured here", "settings": "in vivo"}
{"compound": "CCCCCCCCCCCCCCCC(=O)OCC(COP(=O)([O-])OCC[N+](C)(C)C)OC(=O)CCCCCCCCCCCCCCC", "note": "(stereo not shown) [DPPC, diphalmitoylphosphatidyl choine]", "values": [{"measurement": "undesired features / side effects of formulation", "result": "mucus plugging of the airways and obstruction of ventilator circuits"}]}
